This is an account of results in US20060234987A1, “Neuroprotective benzo 1 3 oxathiol 2 ones” (priority 2003, published 2006).

Each structure is given as a SMILES string. pIC50: −log10 of the molar value.

The subject of the first series is SCG neurons. In words: Protection of SCG neurons from anti-NGF killing. Format: cell-based, Sprague Dawley rats. The conditions noted are these: Rattus norvegicus, Neuron, 48 h, read-out: IC50, rescue from anti-NGF killing of cultured SCG neurons. As to the method: Neurotrophins are critical to the growth, development, and survival of small fiber neurons of the PNS. SCG neurons are neurons of the PNS that undergo apoptosis upon NGF withdrawal. In a typical experiment SCG neurons are cultured in the presence of NGF, which induces survival and neurite out-growth. After 5 days the NGF is removed by either the addition of anti-NGF polyclonal antibody (Sigma) or by repeated washings (4 times) with NGF free media, resulting in the apoptosis of up to 90% of the neurons after 48 hours, as measured by MTS staining. The addition of selected compounds of Formula I to the final cellular media provides upwards of 100% protection, at drug concentrations ranging from 10 to 50 μM (see Example 62).
Protection of SCG neurons from anti-NGF killing. SCG neurons were isolated from day 1 neonatal Sprague Dawley rats, plated at a cell density of 5,000 cells/well, and incubated in Biowhittaker Ultraculture containing 1% Penstrep, 1% L-glutamine, 0.7% ARAC, 3% rat serum, and NGF (50 ng/mL, Calomone Labs), at 37° C., under a 5% CO2 atmosphere. After 4 days the cells were treated with anti-NGF antibody (Sigma). At this time compound was added and the cells were maintained serum and NGF free for 48 hours, at which time viability of the neurons was assessed using Alamar Blue (Medicorp) staining. Table 3 summarizes selected IC50 values from compounds tested using this protocol.
In the case of `COc1ccc(NC(=O)Oc2cc(Sc3ccc4ccccc4c3)c3oc(=O)sc3c2)cc1` [Compound 26, 5-(N-(4-methoxyphenyl)carbamoyloxy)-7-((2-naphthyl)sulfanyl)benzo[1,3]oxathiol-2-one], the negative-log IC50 (pIC50) – broadly, the negative decadic logarithm of the IC50, by convention in mol/L – is 4.80.
The same measure, in the same setting: under `O=c1oc2c(-c3ccc(Cl)cc3Cl)cc(O)cc2s1` [Compound 41, 7-(2,4-dichlorophenyl)-5-hydroxybenzo[1,3]oxathiol-2-one] stands 5.15.
As to `O=c1oc2c(-c3ccc(Br)cc3)cc(O)cc2s1` [Compound 44, 7-(4-bromophenyl)-5-hydroxybenzo[1,3]oxathiol-2-one], the pIC50 was 4.70.

Still in this series, the particulars now being: Rattus norvegicus, Neuron; anti-NGF antibody, 48 hours, Alamar Blue viability; read-out: IC50, rescue from anti-NGF killing of cultured SCG neurons.
With `O=c1oc2c(Sc3cccc4ccccc34)cc(O)cc2s1` [Compound 22, 5-Hydroxy-7-((1-naphthyl)sulfanyl)benzo[1,3]oxathiol-2-one], the pIC50 was less than 4.52.
Turning to `O=c1oc2c(-c3cc(Cl)ccc3Cl)cc(O)cc2s1` [Compound 42, 7-(2,5-dichlorophenyl)-5-hydroxybenzo[1,3]oxathiol-2-one], the pIC50 is 4.77.
The same measure, in the same setting: under `O=c1oc2c(-c3ccc(Cl)c(Cl)c3)cc(O)cc2s1` [Compound 43, 7-(3,4-dichlorophenyl)-5-hydroxybenzo[1,3]oxathiol-2-one] stands 5.15; under `O=c1oc2c(-c3cccc(I)c3)cc(O)cc2s1` [Compound 45, 5-hydroxy-7-(3-iodophenyl)benzo[1,3]oxathiol-2-one], 5.15.
The same measure, in the same setting: under `Cc1cccc(-c2cc(OC(=O)c3ccccc3Cl)cc3sc(=O)oc23)c1` [Compound 48, 5-(2-chlorophenylcarbonyloxy)-7-(3-methylphenyl)benzo[1,3]oxathiol-2-one] stands 4.55; under `Cc1cccc(C)c1-c1cc2oc(=O)sc2cc1O` [Compound 50, 6-(2,6-dimethylphenyl)-5-hydroxybenzo[1,3]oxathiol-2-one], 4.66.
Regarding `COc1ccc(-c2cc(O)cc3sc(=O)oc23)cc1` [Compound 53, 5-hydroxy-7-(4-methoxyphenyl)benzo[1,3]oxathiol-2-one], the pIC50 was less than 4.52.
As to `O=c1oc2c(-c3ccc(-c4ccccc4)cc3)cc(O)cc2s1` [Compound 54, 7-biphenyl-5-hydroxybenzo[1,3]oxathiol-2-one], the pIC50 was 4.64.
The same measure, in the same setting: under `O=C(Oc1cc(-c2ccc(-c3ccccc3)cc2)c2oc(=O)sc2c1)c1cccnc1` [Compound 55, 5-(3-pyridylcarbonyloxy)-7-biphenylbenzo[1,3]oxathiol-2-one] stands 5.15; under `CCNc1cc(C)cc2sc(=O)oc12` [Compound 56, 7-ethylamino-5-methylbenzo[1,3]oxathiol-2-one], 4.40.
On the same count and under the same terms, under `O=c1oc2c3c4c(cc2s1)CCCN4CCC3` [Compound 57] stands 4.30; under `O=c1oc2ccc(Nc3c(Cl)cc(Br)cc3Cl)cc2s1` [Compound 58, 5-(4-bromo-2,6-dichloroanalino)benzo[1,3]oxathiol-2-one], 4.30.

The series is the same for the next values; noted with them: at 30 μM compound.
Turning to `O=c1oc2c(-c3ccccc3C(F)(F)F)cc(O)cc2s1` [Compound 51, 5-hydroxy-7-(2-trifluoromethylphenyl)benzo[1,3]oxathiol-2-one], the “rescue from anti-NGF killing, % at 30 μM” value came out at 38% at 30 μM.

The same series, now with this note: at 50 μM compound.
For the compound `Cc1cccc(C)c1-c1cc(O)cc2sc(=O)oc12` [Compound 49, 7-(2,6-dimethylphenyl)-5-hydroxybenzo[1,3]oxathiol-2-one], the “rescue from anti-NGF killing, % at 50 μM” value came to 40% at 50 μM.
Regarding `CCc1cccc(CC)c1Nc1ccc2oc(=O)sc2c1` [Compound 59, 6-(2,6-diethylanalino)benzo[1,3]oxathiol-2-one], the “rescue from anti-NGF killing, % at 50 μM” value came to 38% at 50 μM.

The subject of the next series is SCG neurons. In words: In vitro protection of SCG neurons from Taxol killing. The settings on record: Rattus norvegicus, Neuron; Taxol 50 ng/mL, 48 hours, MTS viability; read-out: IC50, rescue from Taxol killing of SCG neurons. Format: cell-based, Sprague Dawley rats. From the text: Taxol™ is regularly used in the treatment of breast and other cancers. Taxol™ binds to the cyto-skeletal protein tubulin, thereby inhibiting normal microtubular […] and inducing cellular apoptosis. Despite its potency as an anti-tumour agent, Taxol™ is also toxic to neurons, inducing dose limiting peripheral neuropathies. The addition of Taxol™ to cultured SCG neurons induces the degradation or loss of upwards of 80% of the neurons. The addition of selected compounds of Formula I to the cellular media, concurrently with Taxol™, protects upwards of 100% of the neurons, at drug concentrations ranging from 3 to 50 μM (see Example 63).
In Vitro Protection of SCG neurons from Taxol killing. SCG neurons were isolated from day 1 neonatal Sprague Dawley rats, plated at a cell density of 10,000 cells/well, and incubated in Biowhittaker Ultraculture containing 1% Penstrep, 1% L-glutamine, 0.7% ARAC, 3% rat serum, and NGF (50 ng/mL, Calomone Labs) at 37° C., under a 5% CO2 atmosphere. After 5 days the cells were treated with compound and Taxol™ (50 ng/mL). Viability of neurons was assessed 48 hours later using MTS (Promega) staining. Table 4 summarizes selected IC50 values from compounds tested using this protocol. Also, see FIG. 1 for compound protection against Taxol killing.
Take `O=c1oc2ccc(O)cc2s1` [Compound 1, 5-Hydroxybenzo[1,3]oxathiol-2-one]: the pIC50 is 4.60.
With `O=c1oc2c(Cl)cc(O)c(Cl)c2s1` [Compound 3, 4,7-Dichloro-5-hydroxybenzo[1,3]oxathiol-2-one], the pIC50 is 5.00.
Still for that read-out and setting: under `O=c1oc2c(Sc3cccc4ccccc34)cc(O)cc2s1` [Compound 22, 5-Hydroxy-7-((1-naphthyl)sulfanyl)benzo[1,3]oxathiol-2-one] stands 5.00; under `COc1ccc(NC(=O)Oc2cc(Sc3ccc4ccccc4c3)c3oc(=O)sc3c2)cc1` [Compound 26, 5-(N-(4-methoxyphenyl)carbamoyloxy)-7-((2-naphthyl)sulfanyl)benzo[1,3]oxathiol-2-one], 5.15; under `O=C(Oc1cc(-c2ccc(-c3ccccc3)cc2)c2oc(=O)sc2c1)c1cccnc1` [Compound 55, 5-(3-pyridylcarbonyloxy)-7-biphenylbenzo[1,3]oxathiol-2-one], 5.70.

Tested on in a further series: not listed separately
In words: Conversion of esters and carbamates to phenol in microsomal fractions. The class given is in vitro ADME. The conditions noted are these: incubated with microsomal fractions, standard conditions. The procedure: The phenolic moiety observed in many of the compounds represented by Formula I may be converted to esters, carbamates, thiocarbamates and sulfonates. The Applicant has shown that both esters and carbamates are rapidly converted to the corresponding phenol when incubated in the presence of microsomal fractions using standard conditions (Cresteil, T., et al. Am. Soc. Pharm. Exper. Therapeutics, 2002, 30, 438-445). These microsomal fractions contain various active esterase and P450 oxidative enzymes. […] Esters and carbamates of this type allow for the preparation of various novel pro-drugs which display increased water solubility, stability, formulation, and pharmacokinetic profiles. The carbamates disclosed in U.S. Pat. No. 4,349,685 are limited to lower alkyl, substituted aryl, haloalkyl, carbalkoxyalkene or an alkyl carbonyloxyalkylene group. The preferred embodiments of this disclosure include esters and carbamates represented by Formula I, where the carbamate or ester moiety includes substituted lower alkyl, heteroaryl, substituted heteroaryl moieties which contain a basic nitrogen, capable of increasing the water solubility of said compound via an acid/base salt (typified by compounds 55 and 61).
On to `O=C(Oc1cc(-c2ccc(-c3ccccc3)cc2)c2oc(=O)sc2c1)c1cccnc1` [Compound 55, 5-(3-pyridylcarbonyloxy)-7-biphenylbenzo[1,3]oxathiol-2-one], for which the “conversion to parent phenol in microsomal fractions” value is on record as “rapidly converted to their parent phenols”.
